Experimental data from the Kinase Knowledgebase extract (Sharma et al. 2016).

Key:
[1] = molecular target: PIK3CA (bovine) (UniProt P32871); experiment: Inhibition of PIK3CA Kinase Activity
[2] = molecular target: CDK2 (UniProt P24941); experiment: Enzyme Assay
[3] = molecular target: PIK3CB (UniProt P42338); experiment: Inhibition of PIK3CB Kinase Activity
[4] = molecular target: PIK3CG (UniProt P48736); experiment: Inhibition of PIK3CG Kinase Activity
Sequence of PIK3CG (P48736 whole entry, looked up): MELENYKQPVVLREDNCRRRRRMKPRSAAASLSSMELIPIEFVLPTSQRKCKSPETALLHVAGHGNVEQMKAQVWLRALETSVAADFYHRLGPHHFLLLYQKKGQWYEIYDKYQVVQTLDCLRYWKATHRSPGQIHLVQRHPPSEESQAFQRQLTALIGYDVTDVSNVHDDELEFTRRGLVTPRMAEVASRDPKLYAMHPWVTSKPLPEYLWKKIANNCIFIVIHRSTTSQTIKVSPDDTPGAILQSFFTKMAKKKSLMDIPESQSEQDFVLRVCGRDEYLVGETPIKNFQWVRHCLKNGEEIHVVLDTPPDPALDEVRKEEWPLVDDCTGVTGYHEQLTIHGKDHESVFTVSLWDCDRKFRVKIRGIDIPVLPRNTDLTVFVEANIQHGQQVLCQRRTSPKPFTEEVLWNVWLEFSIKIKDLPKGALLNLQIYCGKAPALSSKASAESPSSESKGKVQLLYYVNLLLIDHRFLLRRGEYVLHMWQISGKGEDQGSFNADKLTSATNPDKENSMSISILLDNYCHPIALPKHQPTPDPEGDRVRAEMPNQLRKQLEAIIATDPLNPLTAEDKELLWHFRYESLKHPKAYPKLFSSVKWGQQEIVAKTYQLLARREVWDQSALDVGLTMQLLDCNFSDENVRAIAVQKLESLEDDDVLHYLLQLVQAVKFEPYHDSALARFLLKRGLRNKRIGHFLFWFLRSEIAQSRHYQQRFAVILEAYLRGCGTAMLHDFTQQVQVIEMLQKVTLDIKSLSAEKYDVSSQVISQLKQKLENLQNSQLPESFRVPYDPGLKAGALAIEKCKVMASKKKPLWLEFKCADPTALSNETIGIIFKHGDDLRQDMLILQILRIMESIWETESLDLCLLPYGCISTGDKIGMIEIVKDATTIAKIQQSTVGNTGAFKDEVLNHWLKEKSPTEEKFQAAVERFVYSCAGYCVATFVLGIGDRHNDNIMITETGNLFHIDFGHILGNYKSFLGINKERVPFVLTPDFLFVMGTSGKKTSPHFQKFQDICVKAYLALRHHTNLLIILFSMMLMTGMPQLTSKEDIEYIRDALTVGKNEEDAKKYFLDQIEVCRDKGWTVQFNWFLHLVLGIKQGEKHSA

Sequence of PIK3CA (bovine) (P32871 whole entry, looked up): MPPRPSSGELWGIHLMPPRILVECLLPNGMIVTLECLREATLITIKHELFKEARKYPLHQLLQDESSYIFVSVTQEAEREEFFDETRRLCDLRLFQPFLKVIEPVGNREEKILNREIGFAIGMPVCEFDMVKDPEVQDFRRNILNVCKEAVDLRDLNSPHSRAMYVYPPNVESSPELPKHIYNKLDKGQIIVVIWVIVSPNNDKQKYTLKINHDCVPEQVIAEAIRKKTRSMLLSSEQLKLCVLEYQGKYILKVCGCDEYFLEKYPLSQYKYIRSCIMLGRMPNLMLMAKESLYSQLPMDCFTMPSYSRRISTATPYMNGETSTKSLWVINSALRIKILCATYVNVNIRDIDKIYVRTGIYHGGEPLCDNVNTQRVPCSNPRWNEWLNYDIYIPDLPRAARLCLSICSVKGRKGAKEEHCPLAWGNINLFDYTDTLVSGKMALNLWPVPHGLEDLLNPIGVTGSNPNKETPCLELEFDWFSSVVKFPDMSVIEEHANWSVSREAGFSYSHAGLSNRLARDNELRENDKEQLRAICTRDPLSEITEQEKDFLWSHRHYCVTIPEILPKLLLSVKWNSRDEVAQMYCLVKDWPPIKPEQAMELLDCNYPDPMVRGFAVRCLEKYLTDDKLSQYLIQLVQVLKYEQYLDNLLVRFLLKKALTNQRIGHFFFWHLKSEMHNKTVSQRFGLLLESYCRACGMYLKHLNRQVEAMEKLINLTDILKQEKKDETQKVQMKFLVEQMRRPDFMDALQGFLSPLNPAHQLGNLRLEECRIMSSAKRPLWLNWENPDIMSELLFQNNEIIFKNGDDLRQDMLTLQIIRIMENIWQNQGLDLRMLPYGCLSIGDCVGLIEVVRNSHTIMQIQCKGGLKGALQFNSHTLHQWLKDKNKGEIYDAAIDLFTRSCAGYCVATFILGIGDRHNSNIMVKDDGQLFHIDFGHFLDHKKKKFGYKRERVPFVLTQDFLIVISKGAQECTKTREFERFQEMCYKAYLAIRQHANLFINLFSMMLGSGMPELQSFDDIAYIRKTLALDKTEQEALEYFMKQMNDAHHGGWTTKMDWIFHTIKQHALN
Sequence of PIK3CB (P42338 whole entry, looked up): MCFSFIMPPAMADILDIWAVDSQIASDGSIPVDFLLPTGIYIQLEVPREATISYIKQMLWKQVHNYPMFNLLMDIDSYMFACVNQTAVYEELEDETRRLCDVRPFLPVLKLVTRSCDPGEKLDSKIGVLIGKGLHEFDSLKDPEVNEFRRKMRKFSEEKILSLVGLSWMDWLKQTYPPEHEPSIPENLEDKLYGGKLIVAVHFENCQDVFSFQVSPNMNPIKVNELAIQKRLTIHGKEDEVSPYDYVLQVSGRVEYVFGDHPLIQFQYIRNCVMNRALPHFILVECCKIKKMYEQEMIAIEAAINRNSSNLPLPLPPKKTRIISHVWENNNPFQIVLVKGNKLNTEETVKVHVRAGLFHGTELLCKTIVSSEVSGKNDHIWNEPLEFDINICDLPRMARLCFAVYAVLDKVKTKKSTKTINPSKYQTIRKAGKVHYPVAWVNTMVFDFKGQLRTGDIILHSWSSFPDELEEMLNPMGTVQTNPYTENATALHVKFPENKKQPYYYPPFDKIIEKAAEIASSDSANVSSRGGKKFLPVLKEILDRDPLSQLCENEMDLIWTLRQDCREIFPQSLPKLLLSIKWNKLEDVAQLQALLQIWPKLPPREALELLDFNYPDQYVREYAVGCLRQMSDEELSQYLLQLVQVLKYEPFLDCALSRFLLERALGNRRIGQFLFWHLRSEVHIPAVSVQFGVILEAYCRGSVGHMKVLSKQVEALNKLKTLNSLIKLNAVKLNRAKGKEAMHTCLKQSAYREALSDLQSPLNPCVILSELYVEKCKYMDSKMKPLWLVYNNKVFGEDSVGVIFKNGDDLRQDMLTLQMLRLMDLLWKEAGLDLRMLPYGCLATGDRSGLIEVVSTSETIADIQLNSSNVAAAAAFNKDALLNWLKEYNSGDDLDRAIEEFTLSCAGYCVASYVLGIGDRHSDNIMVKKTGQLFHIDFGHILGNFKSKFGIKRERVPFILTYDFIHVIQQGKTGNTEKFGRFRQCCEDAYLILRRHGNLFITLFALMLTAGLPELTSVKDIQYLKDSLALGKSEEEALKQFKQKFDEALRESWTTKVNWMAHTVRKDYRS

IC50 [1] | Compound | other results
0.056 µM | Oc1cccc(-c2nc(N3CCOCC3)c3ccccc3n2)c1 | –
> 30 µM | Oc1cccc2nc(-c3ccccc3)nc(N3CCOCC3)c12 | –
2.9 µM | Oc1ccc2nc(-c3ccccc3O)nc(N3CCOCC3)c2c1 | –
> 60 µM | Oc1ccc2nc(-c3ccccc3)nc(N3CCCCC3)c2c1 | –
0.075 µM | Oc1cccc(-c2nc(N3CCOCC3)c3cc(O)ccc3n2)c1 | –
3.9 µM | Nc1ccccc1-c1nc(N2CCOCC2)c2cc(O)ccc2n1 | –
0.93 µM | Nc1ccc(-c2nc(N3CCOCC3)c3cc(O)ccc3n2)cc1 | –
0.027 µM | Oc1cccc(-c2nc(N3CCOCC3)c3ncccc3n2)c1 | –
2.1 µM | COc1ccc2nc(-c3ccccc3)nc(N3CCOCC3)c2c1 | –
2.8 µM | Oc1ccc(-c2nc(N3CCOCC3)c3cc(O)ccc3n2)cc1 | –
0.013 µM | Oc1cccc(-c2nc(N3CCOCC3)c3cnccc3n2)c1 | –
21 µM | O=C1CCN(c2nc(-c3ccccc3)nc3ccc(O)cc23)CC1 | –
0.6 µM | COc1cccc(-c2nc(N3CCOCC3)c3cc(O)ccc3n2)c1 | –
0.1 µM | OCc1cccc(-c2nc(N3CCOCC3)c3cc(O)ccc3n2)c1 | –

Continued, molecule first:

Compound | IC50 [1] | other results
Oc1cccc(-c2nc(N3CCOCC3)c3sccc3n2)c1 | 0.002 µM | IC50 [2]: 28 µM; IC50 [3]: 0.016 µM; IC50 [4]: 0.66 µM
Oc1ccc2c(N3CCOCC3)nc(-c3ccccc3)nc2c1 | 9.8 µM | –
COCCNc1nc(-c2ccccc2)nc2ccc(O)cc12 | 15 µM | –
Oc1ccc2nc(-c3ccccc3)nc(N3CCOCC3)c2c1 | 1.3 µM | –
OCc1ccc(-c2nc(N3CCOCC3)c3cc(O)ccc3n2)cc1 | 3.7 µM | –
Nc1cccc(-c2nc(N3CCOCC3)c3cc(O)ccc3n2)c1 | 0.44 µM | –
Oc1ccc2nc(-c3cccc(F)c3)nc(N3CCOCC3)c2c1 | 1.8 µM | –
c1ccc(-c2nc(N3CCOCC3)c3ccccc3n2)cc1 | 14 µM | –
Oc1ccc2nc(-c3ccccc3)nc(N3CCC(O)CC3)c2c1 | 12 µM | –
Oc1cccc(-c2nc(N3CCOCC3)c3ccncc3n2)c1 | 0.019 µM | –
